Entries after “also recorded” stand apart in the source; their conditions may differ.
What was measured:
HASMCs = format: cell-based, human; conditions: up to 100 nM (200 nM for A4, A7, A9)
HAECs = format: cell-based, human; conditions: up to 50 nM (100 nM for A4, A7, A9)
Experimental: For cell proliferation assay, HAECs were divided at a concentration of 4000 cells/well in a final volume of 100 μl onto a 96-well plate including a siRNA-transfection reagent mixture. After siRNA-transfected for 24 hours, the cells were serum-starved for 18 hours, and then placed in an EBM-2 basal medium supplemented with VEGF-A165 (25 ng/ml, Cat no. 293-VE, R&D systems) for additional 24 hours. The extent of cell proliferation was measured using a WST-1 cell proliferation assay kit (Roche Diagnostics, USA), and the number of cells was expressed as absorbance at 450 nm, which was averaged from 3 wells after subtracting the turbidity at 600 nm.
The cell migration assay was performed in a 24-well Transwell culture chamber (Costar; 8-μm pore size). The bottom of the filter was coated with gelatin B (1 mg/ml) and air-dried for 1 hour. HAECs (6×10^3) were added to upper chambers including siRNA-transfection complexes. After 24 hours, the siRNA-transfected HAECs were serum-starved overnight. A solution of VEGF-A (25 ng/ml) was prepared in a basal medium including 0.5% bovine serum albumin (BSA), and added to bottom chambers. The upper chamber wells were each filled with a basal medium including 0.5% BSA. The Transwell chamber was incubated for 8 hours under the condition of 37° C./5% carbon dioxide. After the incubation, the non-migrated cells at the top of the filter were removed, and the cells that migrated onto the bottom of filter were fixed and stained with 0.6% hematoxylin and 0.5% eosin. The stained cells were photographed and counted. The number of migrating cells was averaged from 3 wells.

Structure (SMILES)	proliferation and chemotactic transmigration of HASMCs in response to PDGF, enhanced by PrxII knockdown (HASMCs)	VEGF-induced proliferation and chemotactic transmigration of HAECs, impaired by PrxII knockdown (HAECs)
CN1C(=O)C2SSC1C(=O)N2C [Compound A2, 5,7-dimethyl-2,3-dithia-5,7-diazabicyclo[2.2.2]-octane-6,8-dione]	excellent activities	excellent activities
COCCCN1C(=O)C2SSC1C(=O)N2CCCOC [Compound A9, 5,7-bis(3-methoxypropyl)-2,3-dithia-5,7-diazabicyclo[2.2.2]octane-6,8-dione]	insignificant activities; also recorded: moderate activities	insignificant activities; also recorded: moderate activities
C=CCN1C(=O)C2SSC1C(=O)N2CC=C [Compound A5, 5,7-diallyl-2,3-dithia-5,7-diazabicyclo[2.2.2]octane-6,8-dione]	excellent activities	excellent activities
COc1ccc(CN2C(=O)C3NC(=O)C2SS3)cc1 (stereo not drawn) [Compound A6, 5-(4-methoxybenzyl)-2,3-dithia-5,7-diazabicyclo[2.2.2]octane-6,8-dione]	moderate activities	moderate activities
O=C1NC2SSC1NC2=O [Compound A1, 2,3-dithia-5,7-diazabicyclo[2.2.2]octane-6,8-dione]	excellent activities	excellent activities
CCCCN1C(=O)C2SSC1C(=O)N2CCCC [Compound A8, 5,7-dibutyl-2,3-dithia-5,7-diazabicyclo[2.2.2]octane-6,8-dione]	excellent activities	excellent activities
O=C1C2SSC(C(=O)N2C(c2ccccc2)c2ccccc2)N1C(c1ccccc1)c1ccccc1 [Compound A7, 5,7-dibenzhydryl-2,3-dithia-5,7-diazabicyclo[2.2.2]octane-6,8-dione]	insignificant activities; also recorded: low activities	insignificant activities; also recorded: low activities
CN1C(=O)C2(C)SSC1C(=O)N2C (stereo not drawn) [Compound A3, 1,5,7-trimethyl-2,3-dithia-5,7-diazabicyclo[2.2.2]octane-6,8-dione]	excellent activities	excellent activities
COc1ccc(CN2C(=O)C3SSC2C(=O)N3Cc2ccc(OC)cc2)cc1 [Compound A4, 5,7-bis(4-methoxybenzyl)-2,3-dithia-5,7-diazabicyclo[2.2.2]octane-6,8-dione]	insignificant activities; also recorded: low activities	insignificant activities; also recorded: low activities
